Experimental data as given in publication PMC7158045 (BMC Plant Biology, 2020).
Where a name gives a salt, the structure may show the parent alone. Read-outs that look alike come from different tables or passages of the source.

Assays:
Assay in all cases: biochemical
[1] = target: T1, ZmDRIK1-R187-P492 (Zea mays, UniProt C0P4K9)
T1 construct: kinase domain, R187-P492
T1 sequence (C0P4K9 1-514): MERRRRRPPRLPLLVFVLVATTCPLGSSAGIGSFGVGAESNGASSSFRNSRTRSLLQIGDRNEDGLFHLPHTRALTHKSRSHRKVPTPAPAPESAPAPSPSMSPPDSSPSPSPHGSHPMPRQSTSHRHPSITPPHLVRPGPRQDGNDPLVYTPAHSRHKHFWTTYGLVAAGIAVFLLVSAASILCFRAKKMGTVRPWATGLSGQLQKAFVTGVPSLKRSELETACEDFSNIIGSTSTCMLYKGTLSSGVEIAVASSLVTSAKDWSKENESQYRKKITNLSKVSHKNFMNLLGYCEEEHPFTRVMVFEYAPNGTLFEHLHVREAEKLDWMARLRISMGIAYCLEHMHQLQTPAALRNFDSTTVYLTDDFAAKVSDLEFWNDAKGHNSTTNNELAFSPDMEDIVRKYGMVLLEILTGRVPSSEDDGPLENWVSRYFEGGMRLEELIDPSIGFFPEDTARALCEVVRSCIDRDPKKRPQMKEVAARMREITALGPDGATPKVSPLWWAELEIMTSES

[2] = target: T2, ZmDRIK1-K217-S514 (Zea mays, UniProt C0P4K9)
T2 construct: kinase domain, K217-S514
T2 sequence (C0P4K9 1-514): T1 sequence (C0P4K9 1-514)

[3] = target: T3, ZmDRIK1 (DROUGHT RESPONSIVE INACTIVE KINASE 1), kinase domain (Zea mays, UniProt C0P4K9); settings: DSF, Boltzmann fit, 0.1% DMSO; for ΔTm at 10 µM: read-out: dTm B, sheet ZmDRIK1-R187-S514;; for dTm B: sheet ZmDRIK1-R187-S514;, 10 µM, binder
T3 construct: gene ZEAMMB73_Zm00001d028770; ZmDRIK1-KD R187-S514 (kinase domain)
T3 sequence (C0P4K9 187-514): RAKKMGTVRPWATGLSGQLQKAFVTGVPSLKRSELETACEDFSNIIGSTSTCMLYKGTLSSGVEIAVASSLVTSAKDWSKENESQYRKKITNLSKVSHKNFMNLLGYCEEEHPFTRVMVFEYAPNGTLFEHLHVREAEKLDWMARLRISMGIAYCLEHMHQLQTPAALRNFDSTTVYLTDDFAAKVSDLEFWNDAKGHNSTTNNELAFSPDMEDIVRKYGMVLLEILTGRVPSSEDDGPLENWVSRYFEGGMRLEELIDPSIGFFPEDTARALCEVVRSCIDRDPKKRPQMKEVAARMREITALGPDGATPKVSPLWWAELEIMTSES

[4] = target: T4, ZmDRIK1-K217-P492 (Zea mays, UniProt C0P4K9)
T4 construct: kinase domain, K217-P492
T4 sequence (C0P4K9 1-514): T1 sequence (C0P4K9 1-514)

[5] = read-out: dTm B, DSF, Boltzmann fit, 0.1% DMSO
[6] = read-out: dTm B, sheet ZmDRIK1-K217-S514;, DSF, Boltzmann fit, 0.1% DMSO
[7] = read-out: dTm B, sheet ZmDRIK1-K217-P492;, DSF, Boltzmann fit, 0.1% DMSO

| Structure (SMILES) | ΔTm at 10 µM [1, 5] | ΔTm at 10 µM [2, 6] | ΔTm at 10 µM [3] | ΔTm at 10 µM [4, 7] | further results |
| --- | --- | --- | --- | --- | --- |
| CS(=O)(=O)c1cccc(CNc2nc(Nc3ccc4c(c3)CCC(=O)N4)ncc2C(F)(F)F)c1 [PF-573228] | 0.148 °C | 0.0316 °C | -0.638 °C | -1.45 °C | – |
| C[C@@H](N)[C@H]1CC[C@H](C(=O)Nc2ccncc2)CC1 [Y-27632 2HCl] | -0.155 °C | -0.475 °C | -0.584 °C | -1.25 °C | – |
| COc1cc(F)c(F)c(Nc2ccc(I)cc2F)c1NS(=O)(=O)C1(C[C@H](O)CO)CC1 [Refametinib (RDEA119)] | -0.163 °C | -0.254 °C | -1.12 °C | -0.93 °C | – |
| Cn1cnc2c(F)c(Nc3ccc(Br)cc3F)c(C(=O)NOCCO)cc21 [MEK162 (ARRY-162)] | -0.189 °C | -0.461 °C | -0.978 °C | -1.3 °C | – |
| NC(=O)Nc1sc(-c2ccc(F)cc2)cc1C(N)=O [TPCA-1] | 0.149 °C | 0.285 °C | -0.582 °C | – | – |
| CN1CCN(c2ccc3nc(-c4c(N)c5c(F)cccc5[nH]c4=O)[nH]c3c2)CC1 [Dovitinib (TKI-258)] | – | – | – | – | dTm B [3]: -0.003273 degC |
| CN(c1ncccc1CNc1nc(Nc2ccc3c(c2)CC(=O)N3)ncc1C(F)(F)F)S(C)(=O)=O [PF-562271] | – | – | – | – | dTm B [3]: -0.5293 degC |
| Cc1ccc(F)c(NC(=O)Nc2ccc(-c3cccc4[nH]nc(N)c34)cc2)c1 [Linifanib (ABT-869)] | -0.414 °C | -0.66 °C | -0.711 °C | -4.15 °C | – |
| CNCc1ccc(-c2cc(-c3nc(-c4ccc(S(=O)(=O)C(C)C)cc4)cnc3N)on2)cc1 [VE-822] | -0.196 °C | -0.454 °C | -0.91 °C | -0.634 °C | – |
| O=C(Cc1ccc(-c2ccc(OCCN3CCOCC3)cc2)cn1)NCc1ccccc1 [KX2-391] | -0.338 °C | -0.346 °C | -0.49 °C | -0.496 °C | – |
| Cc1ccc(-n2nc(C(C)(C)C)cc2NC(=O)Nc2ccc(OCCN3CCOCC3)c3ccccc23)cc1 [BIRB 796 (Doramapimod)] | -0.248 °C | -0.405 °C | 0.000298 °C | -0.873 °C | – |
| N#CC[C@H](C1CCCC1)n1cc(-c2ncnc3[nH]ccc23)cn1 [Ruxolitinib (INCB018424)] | – | – | – | – | dTm B [3]: -0.7708 degC |
| CCn1c(N)c(C(=O)NC)c(=O)c2ccc(C#C[C@@](C)(O)COC)nc21 [SAR131675] | -0.181 °C | -0.272 °C | -0.688 °C | -0.827 °C | – |
| CNC(=O)c1cc(Oc2ccc(NC(=O)Nc3ccc(Cl)c(C(F)(F)F)c3)cc2)ccn1 [Sorafenib Tosylate] | – | – | -12 °C | – | – |
| COc1c(C)c(C(=O)c2ccc(N)c(C(=O)O)c2)n2ccccc12 [SSR128129E] | – | -0.406 °C | -0.884 °C | -0.939 °C | – |
| COc1cc2nccc(Oc3ccc(NC(=O)Nc4ccc(F)cc4F)c(F)c3)c2cc1OC [Ki8751] | -0.397 °C | -0.589 °C | – | -0.321 °C | – |
| COc1ccc(-c2ccc3ncc4c(c3c2)n(-c2ccc(N3CCNCC3)c(C(F)(F)F)c2)c(=O)n4C)cn1 [BGT226 (NVP-BGT226)] | -0.244 °C | 0.245 °C | – | -0.378 °C | – |
| Cc1ccc(NC(=O)c2cccc(C(C)(C)C#N)c2)cc1Nc1ccc2ncn(C)c(=O)c2c1 [AZ 628] | -0.122 °C | -0.322 °C | – | -0.776 °C | – |
| NS(=O)(=O)c1ccc(N/C=C2\C(=O)Nc3ccc4ncsc4c32)cc1 [GW297361X] | – | – | -0.74 °C | – | – |
| CN(C[C@@H]1COCCO1)S(=O)(=O)Nc1ccc2ccc3ncc(-c4cnn(C)c4)cc3c(=O)c2c1 [MK-2461] | – | -0.402 °C | -1 °C | -1.12 °C | – |
| Cc1ccc(Nc2nccc(N(C)c3ccc4c(C)n(C)nc4c3)n2)cc1S(N)(=O)=O [Pazopanib HCl (GW786034 HCl)] | – | – | – | – | dTm B [3]: -0.83 degC |
| Cc1ccc(Nc2nccc(N(C)c3ccc4c(C)n(C)nc4c3)n2)cc1S(N)(=O)=O [Pazopanib] | – | – | – | – | dTm B [3]: -0.7756 degC |

| Structure (SMILES) | ΔTm at 10 µM [1, 5] | ΔTm at 10 µM [2, 6] | ΔTm at 10 µM [3] | ΔTm at 10 µM [4, 7] | further results |
| --- | --- | --- | --- | --- | --- |
| CN1CCN(c2ccc3nc(-c4c(N)c5c(F)cccc5[nH]c4=O)[nH]c3c2)CC1 [Dovitinib (TKI-258) Dilactic Acid] | – | – | – | – | dTm B [3]: -0.2117 degC |
| CNC(=O)Nc1ccc(-c2nc(N3CC4CCC(C3)O4)c3cnn(C4CCC5(CC4)OCCO5)c3n2)cc1 [WYE-125132 (WYE-132)] | – | -0.412 °C | -0.649 °C | -0.91 °C | – |
| CS(=O)(=O)CCNCc1ccc(-c2ccc3ncnc(Nc4ccc(OCc5cccc(F)c5)c(Cl)c4)c3c2)o1 [Lapatinib (GW-572016) Ditosylate] | 1.26 °C | -16 °C | – | -0.876 °C | – |
| COc1cc(Nc2ncc(F)c(Nc3ccc4c(n3)NC(=O)C(C)(C)O4)n2)cc(OC)c1OC [R406 (free base)] | – | – | – | – | dTm B [3]: -0.8381 degC |
| N#CC[C@H](C1CCCC1)n1cc(-c2ncnc3[nH]ccc23)cn1 [S-Ruxolitinib (INCB018424)] | – | – | – | – | dTm B [3]: -0.5823 degC |
| CCc1cc(Nc2nccc(-c3c(-c4ccc(OC)c(C(=O)Nc5c(F)cccc5F)c4)nc4ccccn34)n2)c(OC)cc1N1CCC(N2CCN(S(C)(=O)=O)CC2)CC1 [GSK1904529A] | – | -0.386 °C | 0.265 °C | -0.895 °C | – |
| CN(c1ncccc1CNc1nc(Nc2ccc3c(c2)CC(=O)N3)ncc1C(F)(F)F)S(C)(=O)=O [PF-00562271] | – | – | – | – | dTm B [3]: -0.8176 degC |
| COc1cc(N2CCC(N3CCN(C)CC3)CC2)ccc1Nc1ncc(Cl)c(Nc2ccccc2P(C)(C)=O)n1 [AP26113] | -0.259 °C | -0.362 °C | – | -0.987 °C | – |
| COc1cc(Nc2ncc(F)c(Nc3ccc4c(n3)NC(=O)C(C)(C)O4)n2)cc(OC)c1OC [R406] | – | – | – | – | dTm B [3]: -1.004 degC |
| O=c1c(-c2ccc(O)cc2)coc2cc(O)cc(O)c12 [Genistein] | -17.5 °C | -13.4 °C | – | -18.8 °C | – |
| Cn1c(Nc2ccc(C(F)(F)F)cc2)nc2cc(Oc3ccnc(-c4ncc(C(F)(F)F)[nH]4)c3)ccc21 [RAF265 (CHIR-265)] | -2.04 °C | 10.1 °C | – | 0.39 °C | – |
| COc1ncccc1-c1cnn2ccc(N3CCN(C(=O)OC(C)C)CC3)nc12 [LP-935509 (AAK1)] | – | – | – | – | ΔTm at 10 µM ([1]; read-out: dTm B): -0.447 °C; ΔTm at 10 µM ([2]; read-out: dTm B): -0.536 °C; ΔTm at 10 µM ([4]; read-out: dTm B): -0.638 °C |
| CCc1cncnc1N1CCN(Cc2nc3ccc(C(F)(F)F)cc3[nH]2)CC1 [PF-4708671] | – | -0.219 °C | -0.759 °C | -0.666 °C | – |
| COc1cc2c(Oc3ccc(NC(=O)C4(C(=O)Nc5ccc(F)cc5)CC4)cc3F)ccnc2cc1OCCCN1CCOCC1 [Foretinib (GSK1363089)] | 5.58 °C | -14.7 °C | – | -14.9 °C | – |
| C[C@@H](Oc1cc(-c2cnn(C3CCNCC3)c2)cnc1N)c1c(Cl)ccc(F)c1Cl [Crizotinib (PF-02341066)] | -0.336 °C | -0.67 °C | -0.958 °C | – | – |
| Nc1ccc(-c2ccc3ncc4ccc(=O)n(-c5cccc(C(F)(F)F)c5)c4c3c2)cn1 [Torin 2] | -0.3 °C | -0.322 °C | – | -0.531 °C | – |
| Cc1ccccc1-n1c(Cn2ncc3c(N)ncnc32)nc2cccc(C)c2c1=O [PIK-293] | -0.695 °C | – | -1.14 °C | -1.04 °C | – |
| CC(C)(C)c1nc(-c2cccc(NS(=O)(=O)c3c(F)cccc3F)c2F)c(-c2ccnc(N)n2)s1 [Dabrafenib (GSK2118436)] | -0.533 °C | -0.366 °C | – | -1.14 °C | – |
| COc1cc2nccc(Oc3ccc(NC(=O)C4(C(=O)Nc5ccc(F)cc5)CC4)cc3)c2cc1OC [Cabozantinib malate (XL184)] | – | – | -14.9 °C | – | – |
| O=C(NOCC1CC1)c1ccc(F)c(F)c1Nc1ccc(I)cc1Cl [PD184352 (CI-1040)] | -0.348 °C | 0.792 °C | – | -1.2 °C | – |
| S=C(NCc1ccc2c(c1)OCO2)N1CCN(c2ncnc3c2oc2ccccc23)CC1 [Amuvatinib (MP-470)] | -10.8 °C | -3.2 °C | – | 9.06 °C | – |
